Source: PubChem BioAssay AID624275 (Broad Institute, 2012)
Calls of active or inactive are those of the source. The rule behind the calls is not given here.

What follows are molecules tested on CqsS sensor histidine kinase (Vibrio cholerae) (assay: Light production inducers, absence of autoinducers, V. cholerae delta luxQ strain, confirmatory (AID 624275)). Conditions: V. cholerae WN1103 delta luxQ, luciferase luminescence, 6 h.
With `CCC(C)NC(=O)Cc1ccc(-c2ccccc2)cc1` (stereo not given) the AC40 was 1920 nM.
`COc1ccccc1NC(=O)COC(=O)c1ccc(C)cc1` gave an AC40 of 2240 nM.
With `CCCn1nnnc1NCc1ccc(N(CC)CC)cc1` the AC40 was 90.1 nM.
Work on `Cc1ccc2cc3c(NC(=O)c4ccco4)nn(C)c3nc2c1` yielded an AC40 of 4220 nM.
In the case of `Cc1c(Cl)cccc1-n1cnc(=O)c2ccccc21`, the AC40 is reported as > 35000 nM (inactive).
For `CCCn1nnnc1NCc1ccc(C(C)C)cc1`, the AC40 was 28.8 nM.
Work on `CCCn1nnnc1NCc1ccc(N2CCCC2)cc1` yielded an AC40 of 29.2 nM.
In the case of `O=C(Nc1nnc(-c2ccc3c(c2)OCCO3)o1)C1CCCCC1`, the AC40 is reported as 2070 nM.
`COc1ccc(Cl)cc1NC(=O)COC(=O)c1ccc(C)o1` was tested, and the AC40 was 489 nM.
For `O=c1ncn(-c2cccc(Cl)c2)c2ccccc12`, the AC40 was 29.4 nM.
In the case of `COc1ccccc1NC(=O)COC(=O)c1oc2ccccc2c1C`, the AC40 is reported as 2010 nM.
With `Cc1ccc(OCCNC(=O)c2cccc(C)c2)cc1` the AC40 was 309 nM.
Molecule `O=C(Cc1ccc(-c2ccccc2)cc1)NC1CCCC1` has an AC40 of 118 nM.
With `COc1ccccc1NC(=O)COC(=O)c1cc2c(s1)CCC2` the AC40 was 184 nM.
Work on `CCn1nnnc1NCc1ccc(N2CCCC2)cc1` yielded an AC40 of 5.71 nM.
Molecule `CCOc1ccc(Nc2ccc3nonc3c2[N+](=O)[O-])cc1` has an AC40 of 596 nM.

Same assay, conditions: V. cholerae WN1103 delta luxQ, luciferase luminescence, 6 h; at 35 µM (top of the series)
In the case of `Cc1ccc(CC(=O)NC2CCCC2)cc1`, the activation is reported as 10.3% (inactive).
For `CCCn1nnnc1NCc1ccccc1Cl`, the activation was 0.419% (inactive).
In the case of `CCn1c(CC(=O)Nc2cccc(Cl)c2Cl)nnc1SCCOc1ccc(OC)cc1`, the activation is reported as 0.37% (inactive).
With `CCn1nnc(NCc2ccc(C)cc2)n1` the activation was 0.153% (inactive).
